Experiments:
[1] = system: murine integrin α4; assay: Antisense inhibition of murine integrin α4 protein expression in IC-21 macrophage cells (flow cytometry, CD49d-PE); type: cell-based, mouse; conditions: for % Control / % Inhib.: Table 16
Description: Murine IC-21 macrophage cells (American Type Culture Collection, Manassas, Va.) were used for further study. Additional oligonucleotides were designed to target murine integrin α4. These are shown in Table 10; all 2' MOE nucleotides are shown in bold and remaining positions are 2' deoxy. All 2'-MOE cytosines in these compounds are 5' methylcytosines. IC-21 cells were seeded at 5×10^4 cell/well plates two days before assay. […] Wells were triplicates.
Cells (triplicates) were seeded at 2.5×10^4 cells/well in 24-well plates the day before treatment. Oligonucleotide concentrations were 0.2, 1, 5, 25 and 50 nM in 3 ug/ml LIPOFECTIN. Cells were harvested with 2 mM EDTA for 4 minutes, then 1 ml of 2% BSA, 0.2% azide was added per contents of each well.
IC-21 cells were treated with 0.3, 1, 3, 10 and 30 nM oligonucleotide with 3 ug/ml LIPOFECTIN for 4 hours. Cells were incubated for 24 hours, harvested with trypsin, stained with 2 ug/ml CD49d-PE and rat IgG2B as in previous examples.
These compounds were tested for ability to inhibit integrin α4 protein expression.

[2] = system: leukocyte trafficking into the central nervous system of EAE mice; assay: Reduction of leukocyte trafficking into the central nervous system of EAE mice (immunostaining of sections); type: in vivo, mouse (CSJLF1)
Description: The pieces were embedded in O.C.T. tissue freezing medium (Ted Pella Inc., Redding, Calif.) on dry ice and methylbutane. Four-micron frozen sections were cut and air dried overnight. The sections were fixed for three minutes in ice-cold acetone and then placed on a Dako Autostainer (Dako Corporation, Carpinteria, Calif.) and treated in the following steps: 5 minutes in 0.03% H2 O2, 5 minutes in 5% donkey serum diluted in PBS, 45 minutes in appropriately diluted primary antibody, 30 minutes in horseradish peroxidase-labeled donkey anti-rat secondary antibody (Jackson Laboratory, Bar Harbor, Me.). Sections were rinsed between treatments with PBS. All the antibodies used were rat anti-mouse from PharMingen (San Diego, Calif.), except BM-8, which was from Bachem Bioscience Inc. (King of Prussia, Pa.). The immunostaining was developed with DAB (Dako Corporation) and counterstained with hematoxylin.

[3] = system: integrin α4; assay: Inhibition of integrin α4 protein expression in Jurkat T-lymphocyte cells; type: cell-based, human
Description: ISIS 107248 was tested at doses of 1, 3, 10, 20 and 30 μM for ability to inhibit integrin α4 expression in Jurkat T-lymphocyte cells according to the previous examples. Integrin α4 protein expression was reduced by approximately 65-72% at oligonucleotide doses of 3-30 μM at 24 hours after oligonucleotide treatment. At 48 hours after treatment, integrin α4 protein expression was reduced by 60% at 3 μM and by 90% at 10, 20 and 30 μM oligonucleotide concentration.

[4] = system: A375 melanoma cell adherence to HUVEC; assay: Adherence of A375 melanoma cells to HUVEC (flow cytometry); type: cell-based, human; conditions: 10 μM; compared to TNF treated control
Description: Human umbilical vein endothelial cells (HUVEC) (Clonetics, San Diego Calif.) were cultured in EGM-UV medium (Clonetics)and treated with TNFA for 20 hours to induce VCAM expression. A375 melanoma cells were electroporated with ISIS 107248 as described above. Using antibody to PECAM, a specific marker for endothelial cells, flow cytometry was used to quantitate the inhibition of adherence of A375 melanoma cells to HUVECs. Compared to control (TNF treated, no oligonucleotide), ISIS 107248 (10 μM) inhibited A375 melanoma cell adherence to HUVEC by approximately 85%. An antibody to integrin α4 inhibited adherence by approximately 72%. Melanoma cells represent a clinically relevant model because a statistically significant correlation has been shown between increased expression of VLA-4 expression(of which integrin α4 is one member) and time to progression and overall survival time of patients with melanoma. Schadendorf et al., J. Natl. Cancer Inst., 1995, 87, 366-371.

[5] = system: human integrin α4; assay: Integrin α4 protein expression in A375 cells after electroporation of oligonucleotide (flow cytometry); type: cell-based
Description: A375 cells were treated with ISIS 107245, 107248, 107252, 107255 and 107259 by electroporation at 175 volts, r=1, c=1000, 0.2 ml Opti-MEM, 1×10^6 cells /ml, 2 mm gap electrode using a BTX Electro Cell Manipulator 600 (Genetronics, San Diego Calif.). Oligonucleotide concentrations were 1, 3, 10 and 30 μM. Cells were harvested 24 hours after oligonucleotide treatment and strained with 2 ug/ml CD49d-FITC for flow cytometry as in the previous examples.
ISIS 107248 was compared directly to ISIS 27104 for ability to inhibit integrin α4 expression in A375 melanoma cells. Oligonucleotides were electroporated into cells as in the previous example.

## 17044 (CCGCAGCCATGCGCTCTTGG; phosphorothioate, 2'-MOE/deoxy, further chemistry not given here) [compound 17044]
[1]; Example 14
  reduction of integrin α4 expression: reduce integrin α4 expression to below starting levels
[1]; 0.3 nM
  % Control: 100%
  % Inhib.: 0%
[1]; 1 nM
  % Control: 81%
  % Inhib.: 19%
[1]; 3 nM
  % Control: 32%
  % Inhib.: 68%
[1]; 10 nM
  % Control: -9%
  % Inhib.: > 100%
[2]; 1 mg/kg
  leukocyte trafficking into the spinal cords and brains: reduce leukocyte trafficking into the spinal cords and brains
[2]; EAE experiment 4
  reduction of leukocyte influx into the central nervous system, 1.0 vs 0.1 mg/kg: dose-dependent effect with 1.0 mg/kg of 17044 causing a greater reduction of leukocyte influx into the central nervous system than did 0.1 mg/kg 17044
[2]; one experiment, EAE mice
  CD4+T cells in the central nervous system: virtually eliminated
[2]; preliminary experiments, 1 mg/kg
  leukocyte trafficking as measured by expression of VLA-4, CD4, BM-8 and CD18: significantly reduced

## 107248 (antisense CTGAGTCTGTTTTCCATTCT; chemistry not given here) [compound 107248]
[3]; 3 μM, 48 hours
  reduction of integrin α4 protein expression: 60%
[3]; 10 μM, 48 hours
  reduction of integrin α4 protein expression: 90%
[3]; 20 μM, 48 hours
  reduction of integrin α4 protein expression: 90%
[3]; 30 μM, 48 hours
  reduction of integrin α4 protein expression: 90%
[3]; 3-30 μM, 24 hours
  reduction of integrin α4 protein expression: 65-72%
[4]
  inhibition of A375 melanoma cell adherence to HUVEC: approximately 85%
[5]; Table 25, 1 nM as printed, 24 hours
  % Control: 9.1%
[5]; Table 25, 10 nM, 24 hours
  % Control: 23.2%
[5]; Table 25, 30 nM, 24 hours
  % Control: 52.1%
[5]; Table 26, 1 μM
  % Control: 52.1%
  % Inhib.: 47.9%
[5]; Table 26, 3 μM
  % Control: 17.4%
  % Inhib.: 82.6%
[5]; Table 26, 10 μM
  % Control: 7.9%
  % Inhib.: 92.1%
[5]; Table 26, 30 μM
  % Control: 2.9%
  % Inhib.: 97.1%

Reference: US6258790A, “Antisense modulation of integrin α4 expression” (Isis Pharmaceuticals, Inc., priority 1999, dated 2001)
